# Measured values from patent US20250019377A1 (JACOBIO PHARMACEUTICALS CO., LTD, priority 2021, published 2025).
# pIC50: −log10 of the molar value. Where “and” joins values, the source holds several entries; their conditions need not be identical. Equal entries are not always repeated. Where two headings read alike, the source gives them in different places.
# Legend:
# [1] = target: T1, K-Ras G12V (Homo sapiens, UniProt P01116, G12V); assay: SOS1 catalyzed nucleotide exchange assay (GDP form K-Ras), K-Ras G12V; conditions: read-out: K-Ras G12V GDP Biochemical Activity (IC50)
# T1 sequence (P01116 1-169 isoform P01116-2 G12V): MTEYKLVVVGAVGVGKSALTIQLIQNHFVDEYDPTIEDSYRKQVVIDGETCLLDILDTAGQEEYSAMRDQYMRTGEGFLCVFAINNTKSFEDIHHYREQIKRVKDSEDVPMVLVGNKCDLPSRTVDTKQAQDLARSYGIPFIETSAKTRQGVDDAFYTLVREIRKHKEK
# [2] = target: T2, K-Ras WT (Homo sapiens, UniProt P01116); assay: SOS1 catalyzed nucleotide exchange assay (GDP form K-Ras), K-Ras WT; conditions: read-out: K-Ras WT GDP Biochemical Activity (IC50)
# T2 sequence (P01116 1-169 isoform P01116-2): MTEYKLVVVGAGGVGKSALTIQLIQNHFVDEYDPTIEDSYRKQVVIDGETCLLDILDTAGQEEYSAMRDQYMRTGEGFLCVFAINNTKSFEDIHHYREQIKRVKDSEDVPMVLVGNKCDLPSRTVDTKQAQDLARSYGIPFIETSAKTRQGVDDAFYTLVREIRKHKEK
# [3] = target: T3, K-Ras G13D (Homo sapiens, UniProt P01116, G13D); assay: biochemical
# T3 sequence (P01116 1-169 isoform P01116-2 G13D): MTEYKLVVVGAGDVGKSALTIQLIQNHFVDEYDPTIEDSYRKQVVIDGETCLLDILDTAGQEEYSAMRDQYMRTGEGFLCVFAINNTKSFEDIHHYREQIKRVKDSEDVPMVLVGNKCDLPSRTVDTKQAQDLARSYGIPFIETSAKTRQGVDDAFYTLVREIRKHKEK
# [4] = target: T1, K-Ras G12V; assay: biochemical
# [5] = target: T3, K-Ras G13D; assay: biochemical; remark: listed apart in the source
# [6] = tested on: p-ERK in AGS cells (K-Ras G12D); assay: Phospho-ERK1/2(THR202/TYR204) HTRF assay, AGS; format: cell-based; conditions: Homo sapiens, 2 h, 2 hours incubation
# [7] = tested on: p-ERK in SW620 cells (K-Ras G12V); assay: Phospho-ERK1/2(THR202/TYR204) HTRF assay, SW620; format: cell-based; conditions: Homo sapiens, SW-620, 2 h, 2 hours incubation
# [8] = tested on: p-ERK in NCI-H358 cells (K-Ras G12C); assay: Phospho-ERK1/2(THR202/TYR204) HTRF assay, NCI-H358; format: cell-based; conditions: Homo sapiens, 2 hours incubation
# [9] = tested on: p-ERK in TCC-PAN2 cells (K-Ras G12R); assay: Phospho-ERK1/2(THR202/TYR204) HTRF assay, TCC-PAN2; format: cell-based; conditions: 2 hours incubation
# [10] = tested on: p-ERK in NCI-H460 cells (K-Ras Q61H); assay: Phospho-ERK1/2(THR202/TYR204) HTRF assay, NCI-H460; format: cell-based; conditions: Homo sapiens, 2 hours incubation
# [11] = tested on: p-ERK in MKN-1 cells (K-Ras WT amplification); assay: Phospho-ERK1/2(THR202/TYR204) HTRF assay, MKN-1; format: cell-based; conditions: Homo sapiens; MKN-1, K-Ras WT, 2 hours incubation
# [12] = tested on: AGS cells (K-Ras G12D); assay: 2D cell growth inhibition assay, AGS; format: cell-based; conditions: Homo sapiens, 144 h, 6 days, absolute IC50
# [13] = tested on: AsPC-1 cells (K-Ras G12D); assay: 2D cell growth inhibition assay, AsPC-1; format: cell-based; conditions: Homo sapiens, ASPC1, 144 h, AsPC-1, K-Ras G12D, 6 days, absolute IC50
# [14] = tested on: SW620 cells (K-Ras G12V); assay: 2D cell growth inhibition assay, SW620; format: cell-based; conditions: Homo sapiens, SW-620, 144 h, 6 days, absolute IC50
# [15] = tested on: TCC-PAN2 cells (K-Ras G12R); assay: 3D cell growth inhibition assay, TCC-PAN2; format: cell-based; conditions: 144 h, 6 days, absolute IC50
# [16] = tested on: NCI-H460 cells (K-Ras Q61H); assay: 3D cell growth inhibition assay, NCI-H460; format: cell-based; conditions: Homo sapiens, 144 h, 6 days, absolute IC50
# [17] = tested on: MKN-1 cells (K-Ras WT); assay: 3D cell growth inhibition assay, MKN-1; format: cell-based; conditions: Homo sapiens, 144 h, MKN-1, K-Ras WT, 6 days, absolute IC50
# [18] = tested on: p-ERK in NCI-H747 cells (K-Ras G13D)
# [19] = tested on: Capan-2 cells (K-Ras G12V)
# [20] = tested on: NCI-H358 cells (K-Ras G12C)
# [21] = tested on: NCI-H747 cells (K-Ras G13D)
# [22] = target: T2, K-Ras WT; assay: biochemical
# [23] = tested on: RERF-LC-Ad1 cells (K-Ras G12A)
SMILES,pIC50 [1],pIC50 [2],pIC50 [3],pIC50 [4],pIC50 [5],IC50 [6] [nM],IC50 [7] [nM],IC50 [8] [nM],IC50 [9] [nM],IC50 [10] [nM],IC50 [11] [nM],IC50 [12] [nM],IC50 [13] [nM],IC50 [14] [nM],IC50 [16] [nM],IC50 [17] [nM],pIC50 [18],pIC50 [21],pIC50 [22],IC50 [15] [nM],also measured
"C#Cc1c(Cl)ccc2cc(O)cc(-c3ncc4c(N5CCCOCC5)nc(OC[C@@]56CCCN5C[C@H](F)C6)nc4c3F)c12 [Compound 39, 6-chloro-5-ethynyl-4-(8-fluoro-2-(((2R,7aS)-2-fluorotetrahydro-1H-pyrrolizin-7a(5H)-yl)methoxy)-4-(1,4-oxazepan-4-yl)pyrido[4,3-d]pyrimidin-7-yl)naphthalen-2-ol trifluoroacetic acid]",–,–,–,–,–,–,3.36,1.38,156,9.92,9.92,2.09,61.2,9.66,125,7.34,–,–,–,949,–
"C#Cc1c(F)ccc2cc(O)cc(-c3ncc4c(N5CCCOCC5)nc(OC[C@@]56CCCN5C[C@H](F)C6)nc4c3F)c12 [Compound 1, 5-ethynyl-6-fluoro-4-(8-fluoro-2-(((2R,7aS)-2-fluorotetrahydro-1H-pyrrolizin-7a(5H)-yl)methoxy)-4-(1,4-oxazepan-4-yl)pyrido[4,3-d]pyrimidin-7-yl)naphthalen-2-ol trifluoroacetic acid]",–,–,–,–,–,0.974,2.74,2.2,207,7.04,1.34,2.45,43.8,4.68,75.1,8.23,8.79,8.25,–,189,pIC50 [19]: 7.54; pIC50 [23]: 7.69
"C#Cc1c(F)ccc2cc(O)cc(-c3ncc4c(N5CCOC[C@@H](OC)C5)nc(OC[C@@]56CCCN5C[C@H](F)C6)nc4c3F)c12 (single isomer, unassigned) [Compound 49A]",7.96,7.40,7.61,5.25,< 7.00,–,98.6,–,–,–,–,–,–,–,–,–,–,–,–,–,–
"C#Cc1c(F)ccc2cc(O)cc(-c3ncc4c(N5CCCO[C@H](CC#N)C5)nc(OC[C@@]56CCCN5C[C@H](F)C6)nc4c3F)c12 (single isomer, unassigned)",7.63,7.22,< 6.70,5.68,< 7.00,–,–,–,–,–,–,–,–,–,–,–,–,–,–,–,–
"C#Cc1c(F)ccc2cc(O)cc(-c3ccc4c(N5CCCOCC5)nc(OCC5(CN6CCOCC6)CC5)nc4c3F)c12 [Compound 20, 5-ethynyl-6-fluoro-4-(8-fluoro-2-((1-(morpholinomethyl)cyclopropyl)methoxy)-4-(1,4-oxazepan-4-yl)quinazolin-7-yl)naphthalen-2-ol trifluoroacetic acid]",8.06,7.90,–,5.79,–,53,29.3,–,–,–,–,203,538,139,–,–,7.55,6.47,–,–,–
"C#Cc1c(C)ccc2cc(O)cc(-c3ncc4c(N5CCCOCC5)nc(OC[C@@]56CCCN5C[C@H](F)C6)nc4c3F)c12 [Compound 38, 5-ethynyl-4-(8-fluoro-2-(((2R,7aS)-2-fluorotetrahydro-1H-pyrrolizin-7a(5H)-yl)methoxy)-4-(1,4-oxazepan-4-yl)pyrido[4,3-d]pyrimidin-7-yl)-6-methylnaphthalen-2-ol trifluoroacetic acid]",–,–,–,–,–,2.16,7.72,2.23,218,14.9,10.6,2.73,77.3,13.1,159,10,8.50,7.98,–,≥ 1000,pIC50 [19]: 7.24; pIC50 [20]: 7.87

# The next lines start with results.
pIC50 [1],pIC50 [2],pIC50 [3],pIC50 [4],pIC50 [5],IC50 [6] [nM],IC50 [7] [nM],IC50 [8] [nM],IC50 [9] [nM],IC50 [10] [nM],IC50 [11] [nM],IC50 [12] [nM],IC50 [13] [nM],IC50 [14] [nM],IC50 [16] [nM],IC50 [17] [nM],pIC50 [18],pIC50 [21],pIC50 [22],SMILES,IC50 [15] [nM],also measured
7.65,7.46,< 7.00,5.54,< 7.00,–,–,–,–,–,–,–,–,–,–,–,–,–,–,"C#Cc1c(F)ccc2cc(O)cc(-c3ncc4c(N5CCCOCC5)nc(OCC5CC6CCN5CC6)nc4c3F)c12 (centres unmarked) [Compound 99, 5-ethynyl-6-fluoro-4-(8-fluoro-4-(1,4-oxa-zepan-4-yl)-2-(quinuclidin-2-ylmethoxy)pyrido[4,3-d]pyrimidin-7-yl)naphthalen-2-ol]",–,–
–,–,–,–,–,2.66,6.18,3.86,456,17.5,9.74,9.17,88.2,19.4,24,25.7,8.16,7.47,–,"C#Cc1c(F)ccc2cc(O)cc(-c3nc(NC)c4c(N5CCCOCC5)nc(OC[C@@]56CCCN5C[C@H](F)C6)nc4c3F)c12 [Compound 53, 5-ethynyl-6-fluoro-4-(8-fluoro-2-(((2R,7aS)-2-fluorotetrahydro-1H-pyrrolizin-7a(5H)-yl)methoxy)-5-(methylamino)-4-(1,4-oxazepan-4-yl)pyrido[4,3-d]pyrimidin-7-yl)naphthalen-2-ol trifluoroacetic acid]",≥ 1000,pIC50 [19]: 6.82; pIC50 [20]: 7.33
9.11,8.70,< 7.00,6.26,< 7.00,62.2,19.9,–,–,–,–,41.2,428,54.5,–,–,–,–,6.84,"C#Cc1c(F)ccc2cc(O)cc(-c3ncc4c(N5CCOC[C@H](OC)C5)nc(OC[C@@]56CCCN5C[C@H](F)C6)nc4c3F)c12 (single isomer, unassigned) [Compound 49B]",–,–
7.26,6.50,< 6.70,5.09,< 7.00,–,–,–,–,–,–,–,–,–,–,–,–,–,< 5.30,"C#Cc1c(F)ccc2cc(O)cc(-c3ncc4c(N5CCCOCC5)nc(OCC5CN(C(=O)C=C)CCN5C)nc4c3F)c12 (centres unmarked) [Compound 98, 1-(3-(((7-(8-ethynyl-7-fluoro-3-hydroxy-naphthalen-1-yl)-8-fluoro-4-(1,4-oxazepan-4-yl)pyrido[4,3-d]pyrimidin-2-yl)oxy)methyl)-4-methylpiperazin-1-yl)prop-2-en-1-one]",–,–
7.70 and 8.35,7.25 and 7.87,< 6.70,5.54 and 5.69,< 7.00,–,51.6,–,–,–,–,–,–,182,–,–,–,–,6.17,C#Cc1c(F)ccc2cc(O)cc(-c3ncc4c(N5CCC6CC5CO6)nc(OC[C@@]56CCCN5C[C@H](F)C6)nc4c3F)c12 (some centres unmarked) [Compound 93],–,–
7.73,7.18,6.94,5.56,< 7.00,–,–,–,–,–,–,–,–,–,–,–,–,–,–,"C#Cc1c(F)ccc2cc(O)cc(-c3ncc4c(N5CCCOCC5)nc(OCC5CNCCN5C)nc4c3F)c12 (centres unmarked) [Compound 96, 5-ethynyl-6-fluoro-4-(8-fluoro-2-((1-methyl-piperazin-2-yl)methoxy)-4-(1,4-oxazepan-4-yl)pyrido[4,3-d]pyrimidin-7-yl)naph-thalen-2-ol]",–,–
8.57,8.59,8.66,6.53,–,7.7,95.6,–,–,–,–,25.5,218,120,–,–,–,–,6.71,"C#Cc1c(F)ccc2cc(O)cc(-c3ncc4c(N5CCOCC(C)(F)C5)nc(OC[C@@]56CCCN5C[C@H](F)C6)nc4c3F)c12 (stereo partly drawn) [Compound 101, 5-ethynyl-6-fluoro-4-(8-fluoro-4-(6-fluoro-6-methyl-1,4-oxazepan-4-yl)-2-(((2R,7aS)-2-fluorotetrahydro-1H-pyrrolizin-7a(5H)-yl)methoxy)pyrido[4,3-d]pyrimidin-7-yl)naphthalen-2-ol]",–,–
